Measurements published in ChEMBL document CHEMBL3414470, “Synthesis and biological evaluation of 4-oxycoumarin derivatives as a new class of antifilarial agents” (Eur J Med Chem, 2015).
≈ marks a conversion by molar mass, not a printed value. Calls of active or inactive are those of the source. No cut-off for these calls is given here.

Columns and labels:
[1] = tested on: Brugia malayi; experiment: Antifilarial activity against Brugia malayi adult worm assessed as reduction in motility at 5 uM after 5 days by MTT dye reduction assay; assay type: functional; settings: 120 h
[2] = tested on: Brugia malayi; experiment: Antifilarial activity against Brugia malayi adult worm assessed as reduction in motility at 10 uM after 5 days by MTT dye reduction assay; assay type: functional, organism-based
[3] = tested on: Brugia malayi; experiment: Antifilarial activity against Brugia malayi microfilaria assessed as reduction in motility at 5 uM after 5 days by MTT dye reduction assay; assay type: functional; settings: 120 h
[4] = tested on: Brugia malayi; experiment: Antifilarial activity against Brugia malayi microfilaria assessed as reduction in motility at 10 uM after 5 days by MTT dye reduction assay; assay type: functional, organism-based
[5] = tested on: Brugia malayi; experiment: Antifilarial activity against Brugia malayi adult worm assessed as reduction in motility after 5 days by MTT dye reduction assay; assay type: functional, organism-based
[6] = tested on: Brugia malayi; experiment: Antifilarial activity against Brugia malayi microfilaria assessed as reduction in motility after 5 days by MTT dye reduction assay; assay type: functional, organism-based
[7] = tested on: Vero; experiment: (§1) Cytotoxicity against African green monkey Vero cells after 72 hrs by resazurin dye-based fluorescence assay; assay type: cell-based; settings: chlorocebus sabaeus, vero, 72 h
[8] = tested on: Brugia malayi; experiment: Antifilarial activity against Brugia malayi adult worm assessed as reduction in motility at 2.5 uM after 5 days by MTT dye reduction assay; assay type: functional; settings: 120 h
[9] = tested on: Brugia malayi; experiment: Antifilarial activity against Brugia malayi adult worm assessed as reduction in motility at 1.25 uM after 5 days by MTT dye reduction assay; assay type: functional; settings: 120 h
[10] = tested on: Brugia malayi; experiment: Antifilarial activity against Brugia malayi adult worm assessed as reduction in motility at 0.625 uM after 5 days by MTT dye reduction assay; assay type: functional; settings: 120 h
[11] = tested on: Brugia malayi; experiment: Antifilarial activity against Brugia malayi microfilaria assessed as reduction in motility at 2.5 uM after 5 days by MTT dye reduction assay; assay type: functional; settings: 120 h
[12] = tested on: Brugia malayi; experiment: Antifilarial activity against Brugia malayi microfilaria assessed as reduction in motility at 1.25 uM after 5 days by MTT dye reduction assay; assay type: functional; settings: 120 h
[13] = tested on: Brugia malayi; experiment: Antifilarial activity against Brugia malayi microfilaria assessed as reduction in motility at 0.625 uM after 5 days by MTT dye reduction assay; assay type: functional; settings: 120 h
[14] = (§2) Selectivity index, ratio of CC50 for African green monkey Vero cells to IC50 for Brugia malayi adult worm; assay type: functional
[15] = (§3) Selectivity index, ratio of CC50 for African green monkey Vero cells to IC50 for Brugia malayi microfilaria; assay type: functional
[16] = as §1; assay type: cell-based; settings: chlorocebus sabaeus, Vero cells
[17] = tested on: Brugia malayi; experiment: Antifilarial activity against Brugia malayi adult worm infected in jird model assessed as adulticidal activity at 100 mg/kg, sc after 5 days measured till day 45 relative to control; assay type: functional; settings: route subcutaneous
[18] = tested on: Brugia malayi; experiment: Antifilarial activity against Brugia malayi adult worm infected in jird model assessed as sterile female at 100 mg/kg, sc after 5 days measured till day 45 relative to control; assay type: functional; settings: route subcutaneous
[19] = tested on: Brugia malayi; experiment: Antifilarial activity against Brugia malayi microfilariae infected in jird model assessed as microfilaricidal activity at 100 mg/kg, sc after 5 days measured till day 45 relative to control; assay type: functional; settings: route subcutaneous
[20] = tested on: Brugia malayi; experiment: Antifilarial activity against Brugia malayi adult worm assessed as reduction in motility at 0.312 uM after 5 days by MTT dye reduction assay; assay type: functional; settings: 120 h
[21] = tested on: Brugia malayi; experiment: Antifilarial activity against Brugia malayi adult worm assessed as reduction in motility at 0.156 uM after 5 days by MTT dye reduction assay; assay type: functional; settings: 120 h
[22] = tested on: Brugia malayi; experiment: Antifilarial activity against Brugia malayi adult worm assessed as reduction in motility at 0.078 uM after 5 days by MTT dye reduction assay; assay type: functional; settings: 120 h
[23] = tested on: Brugia malayi; experiment: Antifilarial activity against Brugia malayi adult worm assessed as reduction in motility at 0.039 uM after 5 days by MTT dye reduction assay; assay type: functional; settings: 120 h
[24] = tested on: Brugia malayi; experiment: Antifilarial activity against Brugia malayi adult worm assessed as reduction in motility at 0.019 uM after 5 days by MTT dye reduction assay; assay type: functional; settings: 120 h
[25] = tested on: Brugia malayi; experiment: Antifilarial activity against Brugia malayi microfilaria assessed as reduction in motility at 0.312 uM after 5 days by MTT dye reduction assay; assay type: functional; settings: 120 h
[26] = tested on: Brugia malayi; experiment: Antifilarial activity against Brugia malayi microfilaria assessed as reduction in motility at 0.156 uM after 5 days by MTT dye reduction assay; assay type: functional; settings: 120 h
[27] = tested on: Brugia malayi; experiment: Antifilarial activity against Brugia malayi microfilaria assessed as reduction in motility at 0.078 uM after 5 days by MTT dye reduction assay; assay type: functional; settings: 120 h
[28] = tested on: Brugia malayi; experiment: Antifilarial activity against Brugia malayi microfilaria assessed as reduction in motility at 0.039 uM after 5 days by MTT dye reduction assay; assay type: functional; settings: 120 h
[29] = tested on: Brugia malayi; experiment: Antifilarial activity against Brugia malayi microfilaria assessed as reduction in motility at 0.019 uM after 5 days by MTT dye reduction assay; assay type: functional; settings: 120 h
[30] = tested on: Brugia malayi; experiment: Ratio of ivermectin IC50 to compound IC50 for Brugia malayi adult worm; assay type: functional
[31] = tested on: Brugia malayi; experiment: Ratio of ivermectin IC50 to compound IC50 for Brugia malayi microfilariae; assay type: functional
[32] = tested on: Brugia malayi; experiment: Antifilarial activity against Brugia malayi adult worm assessed as reduction in motility at 0.19 uM after 5 days by MTT dye reduction assay; assay type: functional; settings: 120 h
[33] = tested on: Brugia malayi; experiment: Antifilarial activity against Brugia malayi microfilaria assessed as reduction in motility at 0.19 uM after 5 days by MTT dye reduction assay; assay type: functional; settings: 120 h
[34] = tested on: Brugia malayi; experiment: Antifilarial activity against Brugia malayi adult worm assessed as reduction in motility at 8.9 uM after 5 days by MTT dye reduction assay; assay type: functional, organism-based
[35] = tested on: Brugia malayi; experiment: Antifilarial activity against Brugia malayi adult worm assessed as reduction in motility at 4.45 uM after 5 days by MTT dye reduction assay; assay type: functional, organism-based
[36] = tested on: Brugia malayi; experiment: Antifilarial activity against Brugia malayi adult worm assessed as reduction in motility at 2.17 uM after 5 days by MTT dye reduction assay; assay type: functional, organism-based
[37] = tested on: Brugia malayi; experiment: Antifilarial activity against Brugia malayi adult worm assessed as reduction in motility at 1.12 uM after 5 days by MTT dye reduction assay; assay type: functional, organism-based
[38] = tested on: Brugia malayi; experiment: Antifilarial activity against Brugia malayi microfilaria assessed as reduction in motility at 8.9 uM after 5 days by MTT dye reduction assay; assay type: functional, organism-based
[39] = tested on: Brugia malayi; experiment: Antifilarial activity against Brugia malayi microfilaria assessed as reduction in motility at 4.45 uM after 5 days by MTT dye reduction assay; assay type: functional, organism-based
[40] = tested on: Brugia malayi; experiment: Antifilarial activity against Brugia malayi microfilaria assessed as reduction in motility at 2.17 uM after 5 days by MTT dye reduction assay; assay type: functional, organism-based
[41] = tested on: Brugia malayi; experiment: Antifilarial activity against Brugia malayi microfilaria assessed as reduction in motility at 1.12 uM after 5 days by MTT dye reduction assay; assay type: functional, organism-based
[42] = tested on: Vero; experiment: as §2; assay type: functional
[43] = tested on: Vero; experiment: as §3; assay type: functional

Molecule	inhibition at 5 µM [1] [%]	inhibition at 5 µM [3] [%]	MIC [5]	MIC [6]	inhibition at 1.25 µM [9] [%]	inhibition at 0.625 µM [10] [%]	inhibition at 1.25 µM [12] [%]	inhibition at 0.625 µM [13] [%]	IC50 ([5]; Brugia malayi, 120 h) [nM]	MIC ([5]; Brugia malayi, 120 h) [µM]	Ratio CC50/IC50 [14]	IC50 ([6]; Brugia malayi, 120 h) [nM]	MIC ([6]; Brugia malayi, 120 h) [µM]	Ratio CC50/IC50 [15]	CC50 at 72 h [16] [nM]	Activity [17] [%]	Activity [18] [%]	Activity [19] [%]	inhibition at 0.312 µM [20] [%]	inhibition at 0.312 µM [25] [%]	further results
O=c1cc(OCC(O)CN2CCCCC2)c2ccccc2o1 (configuration not stated)	23.7	1	inactive	inactive																	Activity [2]: inactive; Activity [4]: inactive
IVERMECTIN [listing 1 of 2 here]																					IC50 [5]: 1800 nM; IC50 [6]: 4000 nM; CC50 [7]: 53200 nM
O=c1cc(OCC(O)CNC2CC2)c2ccccc2o1 (configuration not stated)	97.5	100			43.7	34.3	75	75	880	5 (≈ 1.38 µg/mL)	>113.6	380	2.5 (≈ 0.688 µg/mL)	>263.15	> 100000	52.8	0	31.4			inhibition at 2.5 µM [8]: 56.4%; inhibition at 2.5 µM [11]: 75%
CCCCCCCCCCCCNCC(O)COc1cc(=O)oc2ccccc12 (configuration not stated)					99.5	92.4	100	75	14	1.25 (≈ 0.504 µg/mL)	>7142	5.6	0.625 (≈ 0.252 µg/mL)	>17857	> 100000	74.9	19.3	50.8	90.8	75	inhibition at 0.156 µM [21]: 75.5%; inhibition at 0.078 µM [22]: 56%; inhibition at 0.039 µM [23]: 50%; inhibition at 0.019 µM [24]: 30%; inhibition at 0.156 µM [26]: 75%; inhibition at 0.078 µM [27]: 75%; inhibition at 0.039 µM [28]: 75%; inhibition at 0.019 µM [29]: 50%; Ratio IC50 [30]: 129; Ratio IC50 [31]: 714
O=c1cc(OCC(O)CN2CCOCC2)c2ccccc2o1 (configuration not stated)	20.1	1	inactive	inactive																	Activity [2]: inactive; Activity [4]: inactive
Cc1ccc(NCC(O)COc2cc(=O)oc3ccccc23)cc1 (configuration not stated)	78.9	100			12.8	8.9	75	75	1380	5 (≈ 1.63 µg/mL)	>72.4	180	2.5 (≈ 0.813 µg/mL)	>555.5	> 100000	24.8	0	31.7	9.6	75	inhibition at 2.5 µM [8]: 38.6%; inhibition at 2.5 µM [11]: 75%
O=C(O)CCCNCC(O)COc1cc(=O)oc2ccccc12 (configuration not stated)	17.5	1	inactive	inactive																	Activity [2]: inactive; Activity [4]: inactive
CCCCNCC(O)COc1cc(=O)oc2ccccc12 (configuration not stated)					52.4	48.9	75	50	690	2.5 (≈ 0.728 µg/mL)	>144.9	430	2.5 (≈ 0.728 µg/mL)	>232.5	> 100000				46.9	1	inhibition at 2.5 µM [8]: 84.9%; inhibition at 0.19 µM [32]: 8.9%; inhibition at 2.5 µM [11]: 100%; inhibition at 0.19 µM [33]: 1%
CCN(CC)C(=O)N1CCN(C)CC1 [DIETHYLCARBAMAZINE]			inactive	inactive												33.3	0	39.5			
IVERMECTIN [listing 2 of 2 here]			8.9 µM	10 µM																	inhibition [34]: 61.2%; inhibition [35]: 35.3%; inhibition [36]: 21.6%; inhibition [37]: 17.7%; inhibition [38]: 0%; inhibition [39]: 1%; inhibition [40]: 1%; inhibition [41]: 50%; Ratio CC50/IC50 [42]: 29.5; Ratio CC50/IC50 [43]: 13.3
O=c1cc(OCC(O)CNC2CCCCC2)c2ccccc2o1 (configuration not stated)					47	24.2	100	50	360	2.5 (≈ 0.793 µg/mL)	>277.7	260	2.5 (≈ 0.793 µg/mL)	>384.6	> 100000	66.6	0	31.8	16.2	50	inhibition at 2.5 µM [8]: 92%; inhibition at 2.5 µM [11]: 100%
CCCCCCCC/C=C/CCCCCCCCNCC(O)COc1cc(=O)oc2ccccc12 (configuration not stated)									94	0.31 (≈ 0.151 µg/mL)	>1063	13	0.31 (≈ 0.151 µg/mL)	>7692	> 100000	69.4	16.6	50.9	90.4	100	inhibition at 0.156 µM [21]: 45%; inhibition at 0.078 µM [22]: 42%; inhibition at 0.039 µM [23]: 10.2%; inhibition at 0.019 µM [24]: 8.5%; inhibition at 0.156 µM [26]: 75%; inhibition at 0.078 µM [27]: 75%; inhibition at 0.039 µM [28]: 50%; inhibition at 0.019 µM [29]: 50%
CN1CCN(CC(O)COc2cc(=O)oc3ccccc23)CC1 (configuration not stated)	85.6	100			38.7	29.8	75	75	1730	5 (≈ 1.59 µg/mL)	>57.8	280	2.5 (≈ 0.796 µg/mL)	>357.14	> 100000	44.4	0	30.4	11.8	75	inhibition at 2.5 µM [8]: 45.8%; inhibition at 2.5 µM [11]: 75%
